Laboratory results published in patent US9028856B2, “Synergistic pesticide compositions” (priority 2008, dated 2015).
“Also recorded” adds a separate entry of the source.

Test system: tropical house mosquito Culex quinquefasciatus (adults, 3 days old)
Assay: Efficacy of formulations on surfaces (glazed/unglazed tiles, plywood), ten 3 day old mosquitoes, 3 min exposure
Assay type: in vivo
Conditions: for efficacy enhancement of the insecticide by the additive (summary in words): Culex quinquefasciatus, 3 min exposure, mostly 0.1% bendiocarb + 1% additive on glazed tiles
Method: The ingredients were diluted in acetone to give a concentration which corresponds to the desired quantity of a.i./m^2. A 1 ml quantity of the solution was applied by pipette onto the 15 cm×15 cm surfaces without treating the outer edge of 1 cm.
(§1) Ten 3 day old Culex quinquefasciatus mosquitoes were exposed to each treatment for 3 minutes under a perforated petri dish, and then a clean untreated white paper index card was moved between treated surface and petri dish. A water-soaked cotton pad was applied immediately after.
Each test consisted of three replicates (three batches of ten mosquitoes were exposed for three minutes to the same surface, each one hour later), of which the mean values are calculated.
The test insects were Culex quinquefasciatus (adults, 3 days old). The compositions were evaluated for their ability to provide effective knock down after 3, 9, 15, and 30 minutes, 1, 2, 3, 4 and 24 hours (mortality). The experiments were performed in triplicate on glazed tile, but not repeated on wood.
Test Insects are Culex quinquefasciatus (adults, 3 days old). The Application provides the technical compounds were dissolved in acetone and applied as 1 ml solutions onto glazed tiles (15 cm×15 cm). An evaluation is provided at knock down after 3, 9, 15, and 30 minutes, 1, 2, 3, 4 and 24 hours (mortality). There are 3 replicates.
Test Insects: Culex quinquefasciatus (adults, 3 days old)
Application: The technical compounds were dissolved in acetone and applied as 1 ml solutions onto glazed tiles (15 cm×15 cm).
Evaluation: Knock down after 3, 9, 15, and 30 minutes, 1, 2, 3, 4 and 24 hours (mortality) […]
Application: The active ingredients were applied as 1 ml acetone solutions onto glazed tiles (15 cm×15 cm) […]
as §1, with “For the mosquitoes, the USDA Petri Dish Method is used. Ten” for “Ten”, “are” for “were”, “dish” for “dish,”, “is” for “was”, “after. […]” for “after.”

[1] = 3′, in acetone on glazed tiles, Table 84
[2] = 9′, in acetone on glazed tiles, Table 84
[3] = 15′, in acetone on glazed tiles, Table 84
[4] = 30′, in acetone on glazed tiles, Table 84
[5] = 1 h, in acetone on glazed tiles, Table 84
[6] = 2 h, in acetone on glazed tiles, Table 84
[7] = 3 h, in acetone on glazed tiles, Table 84
[8] = 4 h, in acetone on glazed tiles, Table 84
[9] = 24 h (mortality), in acetone on glazed tiles, Table 84

O=C(CCCCCCCCC(=O)OCc1ccccc1)OCc1ccccc1 [Derivative 3, Sebacic acid dibenzyl ester]
efficacy enhancement of the insecticide by the additive (summary in words) (details as worded): superior to Compound A (first test) or equal (second test) | efficacy enhancement of the insecticide by the additive (summary in words) (details as worded, listed as Sebacic acid dibenzyl ester): superior to Compound A; also recorded: improved markedly the efficacy of bendiocarb

CC1(C)CC(O)CC(C)(C)N1[O] [Derivative 9, 4-Hydroxy-2,2,6,6 tetramethylpiperidin-1-oxyl]
efficacy enhancement of the insecticide by the additive (summary in words): acted weaker in both tests | efficacy enhancement of the insecticide by the additive (summary in words) (listed as 4-Hydroxy-2,2,6,6 tetramethylpiperidin-1-oxyl (free radical)): inhibited the efficacy of bendiocarb

CC1(C)CC(OC(=O)CCCCCCCCC(=O)OC2CC(C)(C)NC(C)(C)C2)CC(C)(C)N1
% KD and Mortality [1]: 0% | % KD and Mortality [2]: 0% | % KD and Mortality [3]: 0% | % KD and Mortality [4]: 0% | % KD and Mortality [5]: 3% | % KD and Mortality [6]: 0% | % KD and Mortality [7]: 3% | % KD and Mortality [8]: 3% | % KD and Mortality [9]: 17%

CCCCCCCCON1C(C)(C)CC(OC(=O)CCCCCCCCC(=O)OC2CC(C)(C)N(OCCCCCCCC)C(C)(C)C2)CC1(C)C [Derivative 5, Bis(1-octyloxy-2,2,6,6-tetramethyl-4-piperidyl)sebacate]
efficacy enhancement of the insecticide by the additive (summary in words) (details as worded): weaker as Compound A in both tests | efficacy enhancement of the insecticide by the additive (summary in words) (details as worded, listed as bis(1-octyloxy-2,2,6,6-tetramethyl-4-piperidyl)sebacate): inhibited the efficacy of bendiocarb

O=C(CCCCCCCCC(=O)OCc1ccccc1)OCc1ccccc1 [1% Sebacic acid dibenzyl ester]
% KD and Mortality [1]: 0% | % KD and Mortality [2]: 0% | % KD and Mortality [3]: 0% | % KD and Mortality [4]: 0% | % KD and Mortality [5]: 0% | % KD and Mortality [6]: 0% | % KD and Mortality [7]: 3% | % KD and Mortality [8]: 3% | % KD and Mortality [9]: 7%

CC1(C)CC(O)CC(C)(C)N1 [Derivative 7, 4-Hydroxy-2,2,6,6-tetramethylpiperidine]
efficacy enhancement of the insecticide by the additive (summary in words) (details as worded): superior to Compound A in the first test and inferior in the second test

O=C(CCCCCCCCC(=O)ON1C(=O)CCC1=O)ON1C(=O)CCC1=O
% KD and Mortality [1]: 0% | % KD and Mortality [2]: 0% | % KD and Mortality [3]: 0% | % KD and Mortality [4]: 0% | % KD and Mortality [5]: 0% | % KD and Mortality [6]: 0% | % KD and Mortality [7]: 0% | % KD and Mortality [8]: 0% | % KD and Mortality [9]: 0%

O=C(O)CCCCCCCCC(=O)O [1% Sebacic acid]
% KD and Mortality [1]: 3% | % KD and Mortality [2]: 3% | % KD and Mortality [3]: 3% | % KD and Mortality [4]: 3% | % KD and Mortality [5]: 3% | % KD and Mortality [6]: 3% | % KD and Mortality [7]: 3% | % KD and Mortality [8]: 3% | % KD and Mortality [9]: 13%

CC1(C)CC(OC(=O)CCCCCCCCC(=O)OC2CC(C)(C)NC(C)(C)C2)CC(C)(C)N1 [Derivative 6, Bis(2,2,6,6-tetramethyl-4-piperidyl)sebacate]
efficacy enhancement of the insecticide by the additive (summary in words) (details as worded): inhibited the efficacy of bendiocarb in both tests | efficacy enhancement of the insecticide by the additive (summary in words) (details as worded, listed as bis(2,2,6,6-tetramethyl-4-piperidyl)sebacate): inhibited the efficacy of bendiocarb

CNC(=O)Oc1cccc2c1OC(C)(C)O2 [0.1% bendiocarb]
% KD and Mortality [1]: 0% | % KD and Mortality (3′, solvent 2006-009114 (EC formulation), glazed tiles, Table 83): 10% | % KD and Mortality (3′, solvent Acetone + 0.05% citric acid, glazed tiles, Table 83): 13% | % KD and Mortality (3′, solvent Acetone, glazed tiles, Table 83): 3% | % KD and Mortality (3′, solvent Ethylacetate, glazed tiles, Table 83): 0% | % KD and Mortality (3′, solvent Methanol, glazed tiles, Table 83): 0% | % KD and Mortality [2]: 0% | % KD and Mortality (9′, solvent 2006-009114 (EC formulation), glazed tiles, Table 83): 17% | % KD and Mortality (9′, solvent Acetone + 0.05% citric acid, glazed tiles, Table 83): 33% | % KD and Mortality (9′, solvent Acetone, glazed tiles, Table 83): 3% | % KD and Mortality (9′, solvent Ethylacetate, glazed tiles, Table 83): 3% | % KD and Mortality (9′, solvent Methanol, glazed tiles, Table 83): 0% | % KD and Mortality [3]: 3% | % KD and Mortality (15′, solvent 2006-009114 (EC formulation), glazed tiles, Table 83): 23% | % KD and Mortality (15′, solvent Acetone + 0.05% citric acid, glazed tiles, Table 83): 70% | % KD and Mortality (15′, solvent Acetone, glazed tiles, Table 83): 3% | % KD and Mortality (15′, solvent Ethylacetate, glazed tiles, Table 83): 7% | % KD and Mortality (15′, solvent Methanol, glazed tiles, Table 83): 0% | % KD and Mortality [4]: 17% | % KD and Mortality (30′, solvent 2006-009114 (EC formulation), glazed tiles, Table 83): 27% | % KD and Mortality (30′, solvent Acetone + 0.05% citric acid, glazed tiles, Table 83): 97% | % KD and Mortality (30′, solvent Acetone, glazed tiles, Table 83): 13% | % KD and Mortality (30′, solvent Ethylacetate, glazed tiles, Table 83): 27% | % KD and Mortality (30′, solvent Methanol, glazed tiles, Table 83): 13% | % KD and Mortality [5]: 50% | % KD and Mortality (1 h, solvent 2006-009114 (EC formulation), glazed tiles, Table 83): 43% | % KD and Mortality (1 h, solvent Acetone + 0.05% citric acid, glazed tiles, Table 83): 97% | % KD and Mortality (1 h, solvent Acetone, glazed tiles, Table 83): 77% | % KD and Mortality (1 h, solvent Ethylacetate, glazed tiles, Table 83): 50% | % KD and Mortality (1 h, solvent Methanol, glazed tiles, Table 83): 57% | % KD and Mortality [6]: 73% | % KD and Mortality (2 h, solvent 2006-009114 (EC formulation), glazed tiles, Table 83): 87% | % KD and Mortality (2 h, solvent Acetone + 0.05% citric acid, glazed tiles, Table 83): 97% | % KD and Mortality (2 h, solvent Acetone, glazed tiles, Table 83): 100% | % KD and Mortality (2 h, solvent Ethylacetate, glazed tiles, Table 83): 73% | % KD and Mortality (2 h, solvent Methanol, glazed tiles, Table 83): 73% | % KD and Mortality [7]: 80% | % KD and Mortality (3 h, solvent 2006-009114 (EC formulation), glazed tiles, Table 83): 93% | % KD and Mortality (3 h, solvent Acetone + 0.05% citric acid, glazed tiles, Table 83): 100% | % KD and Mortality (3 h, solvent Acetone, glazed tiles, Table 83): 100% | % KD and Mortality (3 h, solvent Ethylacetate, glazed tiles, Table 83): 70% | % KD and Mortality (3 h, solvent Methanol, glazed tiles, Table 83): 73% | % KD and Mortality [8]: 90% | % KD and Mortality (4 h, solvent 2006-009114 (EC formulation), glazed tiles, Table 83): 97% | % KD and Mortality (4 h, solvent Acetone + 0.05% citric acid, glazed tiles, Table 83): 100% | % KD and Mortality (4 h, solvent Acetone, glazed tiles, Table 83): 100% | % KD and Mortality (4 h, solvent Ethylacetate, glazed tiles, Table 83): 80% | % KD and Mortality (4 h, solvent Methanol, glazed tiles, Table 83): 73% | % KD and Mortality [9]: 100% | % KD and Mortality (24 h (mortality), solvent 2006-009114 (EC formulation), glazed tiles, Table 83): 97% | % KD and Mortality (24 h (mortality), solvent Acetone + 0.05% citric acid, glazed tiles, Table 83): 100% | % KD and Mortality (24 h (mortality), solvent Acetone, glazed tiles, Table 83): 100% | % KD and Mortality (24 h (mortality), solvent Ethylacetate, glazed tiles, Table 83): 80% | % KD and Mortality (24 h (mortality), solvent Methanol, glazed tiles, Table 83): 87%

O=C(O)CC(O)(CC(=O)O)C(=O)O [citric acid]
efficacy enhancement of the insecticide by the additive (summary in words) (details as worded): better efficacy of bendiocarb alone

CC1(C)CC(O)CC(C)(C)N1[O]
% KD and Mortality [1]: 0% | % KD and Mortality [2]: 0% | % KD and Mortality [3]: 0% | % KD and Mortality [4]: 0% | % KD and Mortality [5]: 0% | % KD and Mortality [6]: 0% | % KD and Mortality [7]: 0% | % KD and Mortality [8]: 0% | % KD and Mortality [9]: 7%

O=C(O)CCCCCCCCC(=O)O [Derivative 2, Sebacic acid]
efficacy enhancement of the insecticide by the additive (summary in words) (details as worded, listed as Sebacic acid): no efficacy enhancement | efficacy enhancement of the insecticide by the additive (summary in words) (details as worded, listed as derivative 2): acted weaker in both tests

COC(=O)CCCCCCCCC(=O)OC [1% Dimethyl sebacate]
% KD and Mortality [1]: 0% | % KD and Mortality [2]: 0% | % KD and Mortality [3]: 0% | % KD and Mortality [4]: 0% | % KD and Mortality [5]: 0% | % KD and Mortality [6]: 0% | % KD and Mortality [7]: 0% | % KD and Mortality [8]: 0% | % KD and Mortality [9]: 0%
